Experimental data as given in US20150140085A1, “FORMULATIONS COMPRISING IBRUTINIB” (PRINCIPIA BIOPHARMA INC., priority 2012, published 2015).

What was measured:
[1] = Determination of bioavailability, stomach (oral gavage) v. intraduodenal administration; format: in vivo, Sprague dawley rats; settings: 20 mg/kg in Captex 355, fed female rats; for AUC / Cmax: plasma
Method: Fed female Sprague dawley rats, 225-250 g with surgically implanted intra-duodenal catheters were obtained commercially. Rats were dosed solutions of ibrutinib via bolus injection: oral gavage was done to measure exposure after oral dosing, or dosing via administration through the intra-duodenal catheter to measure exposure bypassing the stomach. Ibrutinib was dosed at 20 mg/kg at a dose volume of 2 ml/kg. Blood was withdrawn at time points out to 24 hours and Ibrutinib quantitated via LC/MS/MS to obtain plasma concentrations. PK parameters were calculated via commercially available software and measures of exposure were used to assess differences in dosing routes.

[2] = rats, reported; cited from earlier work

Substance: ibrutinib
- F (bioavailability) ([1]; ID (intra-duodenal catheter)): 100%
- AUC ([1]; ID (intra-duodenal catheter)): 4943 ng·h/mL
- Cmax ([1]; ID (intra-duodenal catheter)): 884 ng/mL
- F (bioavailability) ([1]; PO (oral gavage)): 21%
- AUC ([1]; PO (oral gavage)): 998 ng·h/mL
- Cmax ([1]; PO (oral gavage)): 243 ng/mL
- oral bioavailability [2]: 22.8%
